Measured values taken from US12514836B2, “Composition for prevention and treatment of myopathy” (ONCOCROSS CO., LTD., priority 2020, dated 2026).

Columns and labels:
MHC and myogenin = experiment: Western blot of myoblast differentiation markers in C2C12 cells; format: cell-based, mouse; settings: 500 μM H2O2, vs DMSO group, FIG. 4
Protocol: (§1) At this time, 500 μM of H2O2 (hydrogen peroxide) was treated with the differentiation medium to create conditions for inhibiting differentiation. Thereafter, the differentiation medium containing H2O2 and the drugs were exchanged every 2 days. After 4 to 6 days, when the shape of myotubes was confirmed, the myotubes were added with 80 μl of a lysis buffer and then vortexed, and centrifuged for 10 minutes at 14000 rpm, and the obtained proteins were added with a 5× sample buffer and reacted in 95° C. boiling water for 5 minutes. 8 μg of the reacted proteins was loaded on 8% and 12% SDS-PAGE gels, developed, and then transferred to a membrane. The membrane was blocked with PBST containing 5% skim milk at room temperature for 1 hour. The membrane was washed with 1×PBST, added with a primary antibody diluted at 1:1000, and then O/N reacted at 4° C. The next day, the membrane was washed with 1×PBST three times every 10 minutes, added with a secondary antibody diluted at 1:5000 in PBST containing 5% skim milk, and then reacted at room temperature for 1 hour. The membrane was washed with 1×PBST three times every 10 minutes, reacted in an enhanced chemiluminescent solution (ECL), and then exposed to an X-ray film to obtain a Western blot analysis result.

p70S6K = experiment: Western blot of AKT/mTOR pathway sub-signal p70S6K in C2C12 cells; format: cell-based, mouse; settings: 10 μM, 500 μM H2O2, FIG. 4
Protocol: as §1

[1] = test system: MSCs derived from MDX mice; experiment: Proliferation of muscle satellite cells (MSCs) derived from MDX mice; format: cell-based, mouse; settings: 100 μM, 48 hours, vs PBS control, FIG. 6
Excerpt: In MDX mice (Jackso lab, stock no. 001801) (including point mutations in a DMD gene), as the most popular experimental model for testing Duchenne muscular dystrophy, older MDX mice over 40 weeks of age that maintained a homogenous transgenic state through mating and breeding and wild-type mice (normal mice) were anesthetized with isoflurane and then both tibialis anterior (TA) muscles were punctured 30 times each with a 26 G syringe (Korea Vaccine, Cat no. 27-00024-01) to induce physical muscle destruction. On day 3 after inducing muscle destruction, the mice were sacrificed and the TA muscles were separated, washed with 1×PBS (137 mM NaCl, 2.7 mM KCl, 10 mM Na2HPO4, […]) twice, and then chopped for 5 minutes with a razor blade, added in serum-free DMEM (GE healthcare, Cat no. SH30243.01) diluted with collagenase II (ThermoFisher, Cat no. 17101015) to a concentration of 2 mg/ml and digested for 1 hour. Thereafter, a supernatant was removed by centrifugation at 300×g for 5 minutes, washed once with serum-free DMEM, and passed through a 70 μm strainer. […] In the experiment, the average and each standard deviation of measurement results of three or more times were obtained, and significance with the control was determined through T testing (*: […].<0.001).

SOD1 G93A mice = experiment: Duration of life of Lou Gehrig (ALS) animal model mice; format: in vivo, mouse
Excerpt: The presence of symptoms and mortality were confirmed through a daily behavioral test set.

C2C12 cells = experiment: Myoblast differentiation of C2C12 cells seen by microscope under differentiation-suppressing condition (H2O2); format: cell-based, mouse; settings: 10 μM, 500 μM H2O2, FIG. 3
4-EBP = experiment: Western blot of AKT/mTOR pathway sub-signal 4-EBP in C2C12 cells; format: cell-based, mouse; settings: 10 μM, 500 μM H2O2, FIG. 4
Protocol: as §1

Row | SMILES | expression levels of MHC and myogenin (MHC and myogenin; 5 μM) | expression levels of MHC and myogenin (MHC and myogenin; 10 μM) | expression of P70S6K (p70S6K) | proliferation of MSCs derived from MDX mice [1] | total median duration of life compared to the drug non-administered group (SOD1 G93A mice; 30 mpk (combination each 30 mpk), intraperitoneally from 10 weeks old, FIG. 1) | prolongation of median duration of life after the appearance of Lou Gehrig's symptoms (SOD1 G93A mice; 30 mpk intraperitoneally from 10 weeks old, non-administered group about 5 weeks, FIG. 2) | prolongation of duration of life converted to Lou Gehrig's patients (SOD1 G93A mice; extrapolated: 5 weeks in mice taken as about 2 years median duration of life in patients) | myoblast differentiation (C2C12 cells) | expression of 4-EBP compared to the control group (DMSO) (4-EBP)
1 | CN(C)CCOC(c1ccccc1)c1ccccc1.Cn1c(=O)c2[nH]c(Cl)nc2n(C)c1=O [OC-501, dimenhydrinate] | increased | increased |  |  |  |  |  |  | 
2 | CC(C)(CO)[C@@H](O)C(=O)NCCC(=O)O [OC-504, calcium pantothenate] |  | increased | increased | significantly promoted | increased statistically significantly | about 2 weeks | about 9.6 months | significantly increased | increased
